Series [1] deals with Puccinia triticina; Synonym: Puccinia recondite f. Sp. Tritici. Description: Wheat Brown Rust (PUCCRT) disease control. Type of series: in vivo. The note with it: Puccinia triticina, topical; for pest or weed control at 100 ppm: rate 100 ppm; for pest or weed control at 121.5 g/ha: rate 121.5 g/H. In short, it runs like this:
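Brown rust on first-leaf Yuma wheat: spore inoculation before or after spray application (acetone/Triton X-100 solution, or EC with Trycol in track spray), overnight 100% RH at 22 °C, disease developed at 24 °C. Severity scored 0–100% and converted to percent control against untreated.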

Series [2] relates to Mycosphaerella graminicola; Anamorph: Septoria tritici. Description: Leaf Blotch of Wheat (SEPTTR) disease control. Type of series: in vivo. The note with it: Zymoseptoria tritici; for pest or weed control at 100 ppm: rate 100 ppm; for pest or weed control at 121.5 g/ha: rate 121.5 g/H. The gist of the method: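 Yuma wheat, 1st leaf stage; spray to run-off, acetone + 9 vol water/110 ppm Triton X-100; S. tritici spores pre- or post-treatment; dew chamber 100% RH, then greenhouse 20° C. Read: % severity vs untreated → % control.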

The test system of series [3] is Phakopsora pachyrhizi. Kind of series: Asian Soybean Rust (PHAKPA) disease control. In kind it is in vivo. The following applies: Phakopsora pachyrhizi, topical. On the procedure: Technical grades of materials were dissolved in acetone, which were then mixed with nine volumes of water containing 0.011% Tween 20. The fungicide solutions were applied onto soybean seedlings using an automated booth sprayer to run-off. All sprayed plants were allowed to air dry prior to further handling.
Soybean plants (variety Williams 82) were grown in soil-less Metro mix, with one plant per pot. Two weeks old seedlings were used for testing. Plants were inoculated either 3 days prior to or 1 day after fungicide treatments. Plants were incubated for 24 h in a dark dew room at 22° C. and 100% RH then transferred to a growth room at 23° C. for disease to develop. Disease severity was assessed on the sprayed leaves.

The mark [4] stands for this setting: 24 h, 1 Day Protectant, read-out: PUCCRT 1 DP disease control.
Setting [5] is: 72 h, 3 Day Curative, read-out: PUCCRT 3 DC disease control.
Setting [6] is: 24 h, 1 Day Protectant, read-out: SEPTTR 1 DP disease control.
[7] abbreviates: 72 h, 3 Day Curative, read-out: SEPTTR 3 DC disease control.
The mark [8] stands for this setting: 24 h, 1 Day Protectant, read-out: Disease Control PHAKPA 1DP.
The mark [9] stands for this setting: 72 h, 3 Day Curative, read-out: Disease Control PHAKPA 3DC.

In general, melting point refers to the temperature, or range, at which the solid turns liquid.

Read-outs that look alike come from different tables or passages of the source.

With `COCN(C(=O)OC(C)(C)C)[C@H]1CCC[C@H](Cc2ccc(F)cc2F)[C@@H](OCc2ccccc2)[C@H](C)OC1=O` [Compound F254], the melting point lay within 108 to 115 °C.

`COc1ccnc(C(=O)N[C@H]2CCC[C@H](Cc3ccc(C)cc3)[C@@H](Oc3ccccc3)[C@H](C)OC2=O)c1OCOC(C)=O` [Compound F134] came in with a melting point of 71 to 75 °C. Moreover, in series [1] (setting [4]), the pest or weed control at 100 ppm fell in the range of 80 to 100%. Also, the pest or weed control at 100 ppm in series [1] (setting [5]) was 80 to 100%. The pest or weed control at 100 ppm in series [2] (setting [6]) fell in the range of 80 to 100%. For the same compound, the pest or weed control at 100 ppm in series [2] (setting [7]) lay within 80 to 100%.

Regarding `COCN(C(=O)OC(C)(C)C)[C@H]1CCC[C@H](Cc2ccc(F)cc2F)[C@@H](OC(=O)c2ccco2)[C@H](C)OC1=O` [Compound F260], the melting point fell in the range of 45 to 48 °C.

Compound `C[C@@H]1OC(=O)[C@@H](N)CCC[C@H](Cc2ccc(F)cc2F)[C@H]1OCc1ccccc1.Cl` showed a melting point of 233 to 237 °C.

Take `Cc1ccc(C[C@H]2CCC[C@H](NC(=O)OC(C)(C)C)C(=O)O[C@@H](C)[C@@H]2OCc2ccccc2)cc1` [Compound F229]: the melting point was 108 to 110 °C.

The compound `CC(C)CO[C@@H]1[C@@H](Cc2ccc(F)cc2F)CCC[C@H](N)C(=O)O[C@H]1C.Cl` yielded a melting point of 67 to 73 °C.

For the compound `C[C@@H]1OC(=O)[C@@H](NC(=O)OC(C)(C)C)CCC[C@H](C)[C@H]1Oc1ccccc1` [Compound F224], the melting point fell in the range of 144 to 145 °C.

For `C[C@@H]1OC(=O)[C@@H](N)CCC[C@H](Cc2ccc(F)cc2F)[C@H]1OCCCc1ccccc1.Cl`, the melting point was 190 to 195 °C (dec.).

Compound `COc1ccnc(C(=O)N[C@H]2CCC[C@H](Cc3ccc(F)cc3F)[C@@H](OCC(C)C)[C@H](C)OC2=O)c1O` [Compound F59] registered a melting point of 69 to 72 °C. In series [1] (setting [4]), the pest or weed control at 100 ppm fell in the range of 80 to 100% and the pest or weed control at 121.5 g/ha fell in the range of 80 to 100%. The pest or weed control at 100 ppm in series [1] (setting [5]) fell in the range of 80 to 100%. Besides, in series [2] (setting [6]), the pest or weed control at 100 ppm lay within 80 to 100% and the pest or weed control at 121.5 g/ha was in the range of 80 to 100%. Also, in series [2] (setting [7]), the pest or weed control at 100 ppm is 80 to 100% and the pest or weed control at 121.5 g/ha is 0 to 80%.

`COc1ccnc(C(=O)N[C@H]2CCC[C@H](Cc3ccc(C)cc3)[C@@H](Oc3ccccc3)[C@H](C)OC2=O)c1OC(C)=O` [Compound F79, 4-methoxy-2-(((3S,7R,8R,9S)-9-methyl-7-(4-methylbenzyl)-2-oxo-8-phenoxyoxonan-3-yl)carbamoyl)pyridin-3-yl acetate]: the melting point lay within 96 to 100 °C. In series [1] (setting [4]), the pest or weed control at 100 ppm is 80 to 100%. In series [1] (setting [5]), the pest or weed control at 100 ppm lay in the range of 80 to 100%. In series [2] (setting [6]), the pest or weed control at 100 ppm is 80 to 100%. Further, in series [2] (setting [7]), the pest or weed control at 100 ppm was in the range of 80 to 100%.

The compound `COCN(C(=O)OC(C)(C)C)[C@H]1CCC[C@H](CCC(C)C)[C@@H](OCCCC(F)(F)F)[C@H](C)OC1=O` [Compound F203] displayed a melting point of 87 to 89 °C.

`COc1ccnc(C(=O)N[C@H]2CCC[C@H](Cc3ccc(C)cc3)[C@@H](OCC3CC3)[C@H](C)OC2=O)c1OCOC(C)=O` [Compound F127] returned a melting point of 55 to 60 °C. In addition, the pest or weed control at 100 ppm in series [1] (setting [4]) lay in the range of 80 to 100%. The pest or weed control at 100 ppm in series [1] (setting [5]) was in the range of 80 to 100%. Also, the pest or weed control at 100 ppm in series [2] (setting [6]) was 80 to 100%. The pest or weed control at 100 ppm in series [2] (setting [7]) lay within 80 to 100%.

`COc1ccnc(C(=O)N[C@H]2CCC[C@H](Cc3ccc(C)cc3)[C@@H](OCC(C)C)[C@H](C)OC2=O)c1O` [Compound F41] had a melting point of 129 to 131 °C. In addition, in series [1] (setting [4]), the pest or weed control at 100 ppm was in the range of 80 to 100%. In addition, the pest or weed control at 100 ppm in series [1] (setting [5]) was 0 to 80%. Besides, the pest or weed control at 100 ppm in series [2] (setting [6]) was in the range of 80 to 100%. Further, in series [2] (setting [7]), the pest or weed control at 100 ppm was 80 to 100%.

In the case of `COc1ccnc(C(=O)N[C@H]2CCC[C@H](Cc3ccc(F)cc3F)[C@@H](OCc3ccccc3)[C@H](C)OC2=O)c1O` [Compound F52], the melting point lay in the range of 68 to 72 °C. In series [1] (setting [4]), the pest or weed control at 100 ppm fell in the range of 80 to 100%. The pest or weed control at 100 ppm in series [1] (setting [5]) is 80 to 100%. Moreover, in series [2] (setting [6]), the pest or weed control at 100 ppm lay within 80 to 100%. In series [2] (setting [7]), the pest or weed control at 100 ppm is 80 to 100%.

Compound `Cc1ccc(C[C@H]2CCC[C@H](NC(=O)OC(C)(C)C)C(=O)O[C@@H](C)[C@@H]2OCC2CC2)cc1` [Compound F236] had a melting point of 86 to 89 °C.

Take `Cc1ccc(C[C@H]2CCC[C@H](N(C(=O)OC(C)(C)C)C(=O)OC(C)(C)C)C(=O)O[C@@H](C)[C@@H]2OCc2ccccc2)cc1` [Compound F230, tert-butyl N-[(3S,7R,8R,9S)-8-benzyloxy-9-methyl-2-oxo-7-(p-tolylmethyl)oxonan-3-yl]-N-tert-butoxycarbonyl-carbamate]: the melting point lay in the range of 164 to 166 °C.

As to `Cc1ccc(C[C@H]2CCC[C@H](N)C(=O)O[C@@H](C)[C@@H]2OCC2CC2)cc1.Cl`, the melting point was 210 °C (dec.).

Regarding `C=CCO[C@@H]1[C@@H](Cc2ccc(F)cc2)CCC[C@H](NC(=O)c2nccc(OC)c2OCOC(=O)COCC)C(=O)O[C@H]1C` [Compound F166], the pest or weed control at 100 ppm in series [1] (setting [4]), in series [1] (setting [5]), in series [2] (setting [6]) and in series [2] (setting [7]) was 80 to 100% throughout. In addition, the pest or weed control at 121.5 g/ha in series [1] (setting [4]), in series [1] (setting [5]), in series [2] (setting [6]) and in series [2] (setting [7]) was 80 to 100% each time. The pest or weed control at 25 ppm in series [3] (setting [8]) fell in the range of 80 to 100%; in series [3] (setting [9]) it was 0 to 80%.

With `CCCO[C@@H]1[C@@H](Cc2ccc(F)cc2)CCC[C@H](N)C(=O)O[C@H]1C.Cl`, the melting point was 215 to 217 °C.

In the case of `COc1ccnc(C(=O)N[C@H]2CCC[C@H](CCC(C)C)[C@@H](OCC3CC3)[C@H](C)OC2=O)c1OC(C)=O` [Compound F63], the pest or weed control at 100 ppm in series [1] (setting [4]), in series [1] (setting [5]), in series [2] (setting [6]) and in series [2] (setting [7]) was 80 to 100% in each case. Further, the pest or weed control at 121.5 g/ha in series [1] (setting [4]), in series [1] (setting [5]), in series [2] (setting [6]) and in series [2] (setting [7]) was 80 to 100% in each case. In addition, the pest or weed control at 25 ppm in series [3] (setting [8]) and in series [3] (setting [9]) was 80 to 100% in each case.

Take `COc1ccnc(C(=O)N[C@H]2CCC[C@H](CCC(C)C)[C@@H](OCC3CC3)[C@H](C)OC2=O)c1OCOC(=O)C(C)C` [Compound F149]: the pest or weed control at 100 ppm in series [1] (setting [4]), in series [1] (setting [5]), in series [2] (setting [6]) and in series [2] (setting [7]) was 80 to 100% in each case. Moreover, the pest or weed control at 121.5 g/ha in series [1] (setting [4]), in series [1] (setting [5]), in series [2] (setting [6]) and in series [2] (setting [7]) was 80 to 100% each time. For the same compound, the pest or weed control at 25 ppm in series [3] (setting [8]) is 80 to 100%; in series [3] (setting [9]), 0 to 80%.

`Cc1ccc(C[C@H]2CCC[C@H](N(C(=O)OC(C)(C)C)C(=O)OC(C)(C)C)C(=O)O[C@@H](C)[C@@H]2OCC(C)C)cc1` [Compound F232]: the melting point lay within 110 to 114 °C.

As to `COc1ccnc(C(=O)N[C@H]2CCC[C@H](C)[C@@H](Oc3ccccc3)[C@H](C)OC2=O)c1OCOC(C)=O` [Compound F124], the pest or weed control at 100 ppm in series [1] (setting [4]), in series [1] (setting [5]), in series [2] (setting [6]) and in series [2] (setting [7]) was 80 to 100% each time. In addition, the pest or weed control at 121.5 g/ha in series [1] (setting [4]), in series [1] (setting [5]), in series [2] (setting [6]) and in series [2] (setting [7]) was 80 to 100% in each case. Moreover, the pest or weed control at 25 ppm in series [3] (setting [8]) and in series [3] (setting [9]) was 80 to 100% throughout.

In the case of `CCOCC(=O)OCOc1c(OC)ccnc1C(=O)N[C@H]1CCC[C@H](CC)[C@@H](Oc2ccccc2)[C@H](C)OC1=O` [Compound F189], the pest or weed control at 100 ppm in series [1] (setting [4]), in series [1] (setting [5]), in series [2] (setting [6]) and in series [2] (setting [7]) was 80 to 100% each time. In addition, the pest or weed control at 121.5 g/ha in series [1] (setting [4]), in series [1] (setting [5]), in series [2] (setting [6]) and in series [2] (setting [7]) was 80 to 100% each time. The pest or weed control at 25 ppm in series [3] (setting [8]) and in series [3] (setting [9]) was 80 to 100% throughout.

In the case of `Cc1ccc(C[C@H]2CCC[C@H](N)C(=O)O[C@@H](C)[C@@H]2Oc2ccccc2)cc1.Cl`, the melting point was 200 to 210 °C (dec.).
